Laboratory results taken from paper PMC9952136 (Antibiotics, 2023).

Experiments:
broiler CYP2E1 = experiment: Probe substrate assay of CYP2E1 activity in broiler liver microsomes; format: in vitro ADME
Description: Probe drugs: a volume of 0.2 mL cold acetonitrile were added into 0.05 mL microsome incubation solution, then vortexed for 2 min to extract target compounds. […] The supernatant was filtered through a 0.2 μm filter.

[1] = in vivo, po, 6 mg/kg
Description: (§4) Mobile phase compositions were 0.5 mol/L H3PO4-triethylamine (pH = 2.4, phase A) and acetonitrile (phase B) (82:18, v/v) [1, 18].
(§5) SAL (Shandong Lukang, Jining, China): The LC-MS/MS assay method for SAL were introduced in the previous research [21]. The separate system of HPLC used 0.1% formic acid solution (phase A) and methanol (phase B) as mobile phase. […] Positive ion scanning mode was used; DP, CE, and CXP are 59.1 V, 65.64 V, and 12 V, respectively.
(§6) Plasma sample: Add 0.8 mL of acetonitrile to 0.2 mL of plasma to precipitate proteins. After vortexing the mixture for 5 min, centrifuge at 12,000 rpm for 10 min. Transfer the supernatant to a new 10 mL tube. The supernatant was blown dry with nitrogen at 40 °C, and the pellet was redissolved with 1 mL of methanol. The methanol reconstituted solution was filtered through a 0.2 μm filter.
(§7) PK parameters were calculated with WinNonlin software using non-compartmental settings (version 6.4; Pharsight Corporation, Mountain View, CA, USA).

in vivo = details: po, 6 mg/kg
Description: as §4, §5, §6, §7

P-gp [2] = test system: P-gp; design: method as in PMID 30989413; details: cited from earlier work
human P-gp = test system: human P-gp; design: method as in PMID 21573958; details: compared with P-gp inhibitor verapamil (Ver); cited from earlier work
broiler CYP2A6 = format: in vitro ADME; details: microsomes
Description: (§1) Probe drugs: a volume of 0.2 mL cold acetonitrile were added into 0.05 mL microsome incubation solution, then vortexed for 2 min to extract target compounds. The mixture was centrifuged at 12,000 rpm for 15 min. The supernatant was filtered through a 0.2 μm filter.

P-gp [3] = experiment: mRNA and protein expression of P-gp in liver and small intestine of treated broilers; format: in vivo, broiler; details: single gavage compared with the saline group
Description: (§2) The relative expressions of CYP3A4, P-gp and BCRP in tissue of broiler and Caco-2 were evaluated via quantitative real-time PCR (RT–qPCR, Bio-Rad, Hercules, CA, USA). […] Relevant cells were treated as indicated and total RNA was extracted from cells and tissue using RNA isolater Total RNA Extraction Reagent (R401-01, Vazyme Biotech Co., Ltd., Nanjing, China) following the manufacturer’s protocols, then reverse-transcribed into cDNA using HiScript II Q Select RT SuperMix for Qpcr (R233-01, Vazyme Biotech Co., Ltd.). The cDNA was determined by quantitative RT-PCR using 2 × AceQ qPCR SYBR Green Master Mix (Q141-02, Vazyme Biotech Co., Ltd.) with the primers (listed in Supplementary Tables S1 and S2). All data were analyzed using the 2−ΔΔCt method.
(§3) These were then collected in a RIPA lysis buffer (P0013B, Beyotime, Shanghai, China) and incubated on a rocker with ice for 30 min. […] Proteins were transferred into a polyvinylidene fluoride (PVDF) membrane (Bio-Rad) and then incubated with the CYP3A4 Rabbit pAb (Cat#A2544, ABclonal, Wuhan, China), ABCG2 Rabbit pAb (Cat#A5661, ABclonal, Wuhan, China), P-gp Rabbit pAb (Cat#A11747, ABclonal, Wuhan, China) over night, respectively. […] The immunoreactive bands were visualized on a gel imaging system (Tanon 5200 Multi, Tanon Technology Co., Ltd., Shanghai, China), and the intensities of the immunoreactive bands were quantified using Quantity One.

BCRP = experiment: mRNA and protein expression of BCRP in liver and small intestine of treated broilers; format: in vivo, broiler
Description: as §2, §3

CYP3A4 (broiler) = experiment: Probe substrate (testosterone) assay of CYP3A4 activity in broiler liver microsomes; format: in vitro ADME; details: broiler, chicken (broiler), microsomes
Description: as §1
[…]. […] Except for testosterone, which was incubated for 30 min, all other probe drugs were incubated for 4 h.
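Wherever AUC0-48h is given: plasma drug levels measured by HPLC or LC-MS/MS, with PK parameters obtained through non-compartmental analysis in WinNonlin.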
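Wherever AUC0-∞ is given: plasma drug levels measured by HPLC or LC-MS/MS, with PK parameters obtained through non-compartmental analysis in WinNonlin.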
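Wherever MRT0-48h is given: plasma drug levels measured by HPLC or LC-MS/MS, with PK parameters obtained through non-compartmental analysis in WinNonlin.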
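Wherever MRT0-∞ is given: plasma drug levels measured by HPLC or LC-MS/MS, with PK parameters obtained through non-compartmental analysis in WinNonlin.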

Row | Structure (SMILES) | effect on CYP2E1 activity (broiler CYP2E1) | MRT0-48h ([1]; AA broiler) [h] | MRT0-∞ ([1]; AA broiler) [h] | AUC0-48h ([1]; AA) [ng·h/mL] | AUC0-∞ ([1]; AA) [ng·h/mL] | k el (in vivo; AA broiler, Ke) [s⁻¹] | Tmax (in vivo; AA, Tmax) [h] | half-life (in vivo; AA, t1/2) [h] | effect on P-gp in A549 cells (P-gp [2]; 5 μM SAL, 30 min and 1 h) | effect on expression of P-gp in A549 cells (P-gp [2]; SAL treatment for 72 h) | inhibition of human P-gp (human P-gp) | effect on CYP2A6 activity (broiler CYP2A6) | effect on P-gp gene expression levels in the liver and small intestine (P-gp [3]) | effect of SAL on expression of BCRP (BCRP; ENR + SAL group compared with single ENR group) | effect of SAL on expression of BCRP (BCRP; SAL (5d) + ENR group compared with single ENR group) | inhibition at 30 min, 100 µmol/L (CYP3A4 (broiler)) [%]
1 | CC[C@@H](C(=O)[C@@H](C)[C@@H](O)[C@H](C)CCc1ccc(C)c(O)c1C(=O)O)[C@H]1O[C@](CC)([C@H]2CC[C@](O)(CC)[C@H](C)O2)C[C@@H]1C [LAS, lasalocid] | inductive effects |  |  |  |  |  |  |  |  |  |  |  |  |  |  | 
2 | CC[C@@H](C(=O)[C@@H](C)[C@@H](O)[C@H](C)[C@@H]1O[C@@H]([C@@H](CC)C(=O)O)CC[C@@H]1C)[C@H]1O[C@]2(C=C[C@@H](O)[C@]3(CC[C@@](C)([C@H]4CC[C@](O)(CC)[C@H](C)O4)O3)O2)[C@H](C)C[C@@H]1C [SAL, salinomycin] |  | 5.53 ± 1.16 | 7.53 ± 2.39 | 218.96 ± 42.32 | 264.78 ± 40.60 | 1.39e-05 | 0.42 ± 0.3 | 14.2 ± 3.1 | no significant effect | significantly induced | effectively inhibit | inductive effects | suppress | significantly inhibited | significantly induced | 52
